Measured values as given in patent publication US20180333415A1, “THERAPEUTIC METHODS” (REGENTS OF THE UNIVERSITY OF MINNESOTA, priority 2017, published 2018).

Experiments:
[1] = test system: MCF-7 (HER2 negative) cell line; assay: Inhibition of proliferation of MCF-7 cell line in complete media; format: cell-based; conditions: Homo sapiens, MCF7, FIG. 1, read-out: IC50 for inhibition of growth
Protocol: (§1) Poziotinib was purchased from a commercial source (Selleck Chem catalog number S7358). Assays were conducted using standard techniques that are known in the literature including those described in US Patent Publication U.S. 2015/0342909.
(§2) Poziotinib was tested for inhibition of proliferation of the MCF-7 (HER2 negative) cell line in complete media. The IC50 for inhibition of growth was determined to be approximately 3 μM (FIG. 1). Poziotinib was tested for inhibition of CYP2C8 supersome-mediated EET biosynthesis. The IC50 for inhibition of EET synthesis was determined to be approximately 10 μM (FIG. 2). Poziotinib was tested for inhibition of CYP3A4 supersome-mediated EET biosynthesis. The IC50 for inhibition of EET synthesis was determined to be approximately 10 µM (FIG. 2).

CYP2C8 = target: T1, CYP2C8 (Homo sapiens, UniProt P10632); assay: Inhibition of CYP2C8 supersome-mediated EET biosynthesis; format: biochemical; conditions: FIG. 2, read-out: IC50 for inhibition of EET synthesis
T1 sequence (P10632 1-490): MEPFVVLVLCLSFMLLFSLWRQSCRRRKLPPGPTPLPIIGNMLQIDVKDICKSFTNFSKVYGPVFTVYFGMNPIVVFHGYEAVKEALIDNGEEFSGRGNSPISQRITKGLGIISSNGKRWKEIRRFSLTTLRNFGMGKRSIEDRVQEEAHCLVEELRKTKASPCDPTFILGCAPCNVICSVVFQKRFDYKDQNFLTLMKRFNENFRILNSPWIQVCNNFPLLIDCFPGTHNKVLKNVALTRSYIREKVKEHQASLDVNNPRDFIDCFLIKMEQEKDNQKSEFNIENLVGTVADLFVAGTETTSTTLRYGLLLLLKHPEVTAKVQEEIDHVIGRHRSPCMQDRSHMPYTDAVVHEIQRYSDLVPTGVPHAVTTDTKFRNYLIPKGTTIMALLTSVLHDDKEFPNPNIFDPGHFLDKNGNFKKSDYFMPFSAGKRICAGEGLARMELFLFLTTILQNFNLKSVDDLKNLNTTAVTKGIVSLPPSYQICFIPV
Protocol: as §1, §2

CYP3A4 = CYP3A4 (Homo sapiens, UniProt P08684); assay: Inhibition of CYP3A4 supersome-mediated EET biosynthesis; format: biochemical; conditions: CYP3A4 supersomes, read-out: IC50 for inhibition of EET synthesis
Protocol: as §1, §2

MCF7 = assay: Measurement of OCR and ECAR (XF Extracellular Flux Analyzer); format: cell-based; conditions: MCF7, poziotinib 40 and 80 uM, endpoint A+270 minutes; P=0.0286 (40 uM), P=0.0001 (80 uM); normalized to 6th measurement DMSO control, n=5, FIG. 4
Protocol: Cells were maintained in growth medium consisting of 10% FBS at 37° C. with 5% CO2 and seeded at 30,000 cells per well in XF24-well cell culture microplates (Seahorse Bioscience, North Billirica, Ma.). Concentrated stocks of poziotinib were prepared in DMSO. Poziotinib was diluted to 10× working concentration in XF assay medium (a non-buffered medium including 2 mM L-glutamine but no sodium bicarbonate (buffering agent), glucose, or sodium pyruvate). Assays were performed in the XF Extracellular Flux Analyzer (Seahorse Bioscience), which measures uptake and excretion of metabolic end products in real time. Oxygen consumption rate (OCR) and extracellular acidification rate (ECAR) were measured using an XF Assay Kit. OCR is reported in pmoles/minute and ECAR in mpH/minute. Before analysis, the cells were switched from culture medium to XF assay medium. After baseline measurements, 75 μl of poziotinib prepared in assay medium was injected into each well to reach final working concentrations. After addition of poziotinib, OCR and ECAR were measured at 18-minute intervals. There were 5 replicates performed for each data point.
OCR was reduced by poziotinib vs. DMSO and was significant at the endpoint of A+270 minutes. […] Results are normalized to the 6th measurement DMSO control and expressed as mean ±S.D. (n=5) (FIG. 4).

EGFR type I kinase = EGFR type I kinase (Homo sapiens, UniProt P00533); conditions: as described in WO2008/150118; cited from earlier work
[2] = test system: various cancer cell lines including colon/rectal, skin, lung and the breast cancer cell line SK-BR3; conditions: lung and SK-BR3 (overexpresses HER2) cell lines, WO2008/150118; cited from earlier work

Sequence of CYP3A4 (P08684 whole entry): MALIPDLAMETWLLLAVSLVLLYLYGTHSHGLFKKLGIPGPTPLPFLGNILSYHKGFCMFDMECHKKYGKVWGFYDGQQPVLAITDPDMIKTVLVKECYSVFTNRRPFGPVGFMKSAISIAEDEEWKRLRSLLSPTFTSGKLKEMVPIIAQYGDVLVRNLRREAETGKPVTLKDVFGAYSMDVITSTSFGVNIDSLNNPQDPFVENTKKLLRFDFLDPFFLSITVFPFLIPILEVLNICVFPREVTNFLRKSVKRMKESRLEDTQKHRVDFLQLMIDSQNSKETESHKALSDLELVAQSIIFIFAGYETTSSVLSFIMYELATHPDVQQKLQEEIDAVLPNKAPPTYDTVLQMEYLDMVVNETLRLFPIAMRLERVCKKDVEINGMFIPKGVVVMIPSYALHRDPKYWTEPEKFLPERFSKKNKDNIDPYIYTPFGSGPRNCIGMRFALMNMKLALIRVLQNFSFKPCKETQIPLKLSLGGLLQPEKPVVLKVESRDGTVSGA
Sequence of EGFR type I kinase (P00533 25-1210): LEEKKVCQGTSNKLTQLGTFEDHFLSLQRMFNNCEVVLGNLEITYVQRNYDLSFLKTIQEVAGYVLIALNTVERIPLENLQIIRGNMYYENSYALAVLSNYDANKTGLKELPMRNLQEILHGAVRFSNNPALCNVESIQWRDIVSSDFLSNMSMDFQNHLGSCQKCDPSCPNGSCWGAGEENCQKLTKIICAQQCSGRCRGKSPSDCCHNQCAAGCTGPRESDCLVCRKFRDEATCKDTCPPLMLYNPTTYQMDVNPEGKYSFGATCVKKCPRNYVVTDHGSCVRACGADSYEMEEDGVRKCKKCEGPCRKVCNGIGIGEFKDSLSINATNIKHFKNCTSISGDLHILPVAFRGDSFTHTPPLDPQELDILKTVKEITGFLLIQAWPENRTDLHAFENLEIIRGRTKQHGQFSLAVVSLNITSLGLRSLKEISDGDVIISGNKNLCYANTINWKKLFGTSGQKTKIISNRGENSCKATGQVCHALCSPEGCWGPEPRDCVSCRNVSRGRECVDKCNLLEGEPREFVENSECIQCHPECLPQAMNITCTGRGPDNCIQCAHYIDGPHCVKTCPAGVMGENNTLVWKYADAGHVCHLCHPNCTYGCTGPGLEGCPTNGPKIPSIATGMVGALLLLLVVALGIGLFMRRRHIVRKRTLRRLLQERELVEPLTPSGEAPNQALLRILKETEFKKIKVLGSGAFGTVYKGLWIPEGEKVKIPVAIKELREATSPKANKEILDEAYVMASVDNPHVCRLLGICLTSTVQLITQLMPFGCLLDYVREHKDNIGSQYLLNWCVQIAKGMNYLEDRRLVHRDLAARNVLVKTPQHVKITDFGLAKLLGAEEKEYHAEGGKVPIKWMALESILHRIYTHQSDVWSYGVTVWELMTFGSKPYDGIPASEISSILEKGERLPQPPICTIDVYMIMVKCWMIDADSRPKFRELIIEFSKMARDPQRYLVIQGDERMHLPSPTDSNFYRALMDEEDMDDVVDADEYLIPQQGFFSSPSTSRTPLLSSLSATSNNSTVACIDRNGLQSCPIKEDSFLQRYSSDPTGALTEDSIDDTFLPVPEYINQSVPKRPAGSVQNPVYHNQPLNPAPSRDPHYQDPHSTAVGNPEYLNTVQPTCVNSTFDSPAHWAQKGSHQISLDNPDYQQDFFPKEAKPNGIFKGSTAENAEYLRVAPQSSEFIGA

IC50 [1]: ~3 µM | IC50 (CYP2C8): ~10 µM | IC50 (CYP3A4): ~10 µM
SMILES: C=CC(=O)N1CCC(Oc2cc3c(Nc4ccc(Cl)c(Cl)c4F)ncnc3cc2OC)CC1 [Poziotinib, 1-(4-((4-((3,4-dichloro-2-fluorophenyl)amino)-7-methoxyquinazolin-6-yl)oxy)piperidin-1-yl)prop-2-en-1-one]
Oxygen consumption rate (OCR) vs. DMSO (MCF7): reduced | Inhibition of EGFR type I kinase (EGFR type I kinase): inhibit EGFR type I kinase | Inhibition of cell growth [2]: inhibit cell growth
